Patent US20260258032A1, “TYROSINE KINASE 2 INHIBITORS AND USES THEREOF” (BIOGEN MA INC., priority 2022, published 2026)
Counter-ions that a name gives are not always drawn.

Columns and labels:
[1] = test system: Tyk2 kinase activity on STAT4; test: pSTAT4 cell assay (MSD, NK92 cells); format: cell-based; conditions: compounds 1 hr
Outline: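 Serum-starved NK92 cells, which natively express Tyk2 and STAT4, were pretreated for 1 h with a 10-point 4-fold dilution series from 10 μM. They were then stimulated with 30 ng/mL IL2 for 15 min. Phospho-STAT in lysates was quantified by MSD with anti-STAT4 antibodies, and IC50 was obtained from 4-parameter logistic fits.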

[2] = target: T1, JH2 domain of human Tyk2 (Homo sapiens, UniProt P29597); test: JH2 biochemical assay (TR-FRET probe displacement); format: binding
T1 construct: 10×His-tagged TYK2 JH2 domain (amino acid 575-876)
Outline: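 10×His-tagged human TYK2 JH2 (aa 575-876, 2 nM) incubated 60 min with 2 nM fluorescent probe, 0.1 nM Tb anti-His antibody and compound (10-point 3-fold series from […] top). TR-FRET 520/495 nm ratio, falling with probe displacement, normalized and fitted to a 4-parameter logistic for IC50.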

[3] = TR-FRET probe displacement, JH2 domain of human Tyk2

T1 sequence (P29597 575-876): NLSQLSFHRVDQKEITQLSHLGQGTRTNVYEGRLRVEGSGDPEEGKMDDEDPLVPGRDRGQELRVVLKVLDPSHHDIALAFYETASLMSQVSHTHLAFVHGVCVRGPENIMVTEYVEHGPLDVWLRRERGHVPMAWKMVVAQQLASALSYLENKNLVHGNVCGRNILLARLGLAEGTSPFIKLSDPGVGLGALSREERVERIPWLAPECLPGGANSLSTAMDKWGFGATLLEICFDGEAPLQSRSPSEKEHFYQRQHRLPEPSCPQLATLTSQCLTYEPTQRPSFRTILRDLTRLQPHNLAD

In the case of `CC(=O)Nc1cc2c(cn1)C1(CC1)CN2c1cc(C)nc(OCC23CC(C)(CO2)C3)n1` [Example 371, N-(1′-(6-methyl-2-((4-methyl-2-oxabicyclo[2.1.1]hexan-1-yl)methoxy)pyrimidin-4-yl)-1′,2′-dihydrospiro[cyclopropane-1,3′-pyrrolo[3,2-c]pyridin]-6′-yl)acetamide], the IC50 ([1]; stimulated 15 minutes) is reported as ≥ 1000 nM and the IC50 ([2]; JH2 biochemical assay) is reported as ≥ 1000 nM.
With `COC1CC(COc2nc(C)cc(N3CC4(CC4)c4cnc(NC(C)=O)cc43)n2)C1` (stereo not shown) [Example 372, N-(1′-(2-((3-methoxycyclobutyl)methoxy)-6-methylpyrimidin-4-yl)-1′,2′-dihydrospiro[cyclopropane-1,3′-pyrrolo[3,2-c]pyridin]-6′-yl)acetamide] the IC50 ([1]; then stimulated 15 minutes) was ≥ 1000 nM and the IC50 [2, 3] was 100 to 1000 nM.
In the case of `COC(C)(C)COc1nc(C)cc(N2CC3(CC3)c3cnc(NC(C)=O)cc32)n1` [Example 373, N-(1′-(2-(2-methoxy-2-methylpropoxy)-6-methylpyrimidin-4-yl)-1′,2′-dihydrospiro[cyclopropane-1,3′-pyrrolo[3,2-c]pyridin]-6′-yl)acetamide], the IC50 ([1]; then stimulated 15 minutes) is reported as ≥ 1000 nM and the IC50 [2, 3] is reported as 100 to 1000 nM.
`CC(=O)Nc1cc2c(cn1)C1(CC1)CN2c1cc(C)nc(OC2CCOC2)n1` (stereo not shown) [Example 374, N-(1′-(6-methyl-2-((tetrahydrofuran-3-yl)oxy)pyrimidin-4-yl)-1′,2′-dihydrospiro[cyclopropane-1,3′-pyrrolo[3,2-c]pyridin]-6′-yl)acetamide trifluoroacetate] was tested, and the IC50 ([1]; then stimulated 15 minutes) was ≥ 1000 nM and the IC50 [2, 3] was 10 to 100 nM.
For `CC(=O)Nc1cc2c(cn1)C1(CC1)CN2c1cc(C)nc(OC2CC(C#N)C2)n1` (stereo not shown) [Example 375, N-(1′-(2-(3-cyanocyclobutoxy)-6-methylpyrimidin-4-yl)-1′,2′-dihydrospiro[cyclopropane-1,3′-pyrrolo[3,2-c]pyridin]-6′-yl)acetamide], the IC50 ([1]; then stimulated 15 minutes) was ≥ 1000 nM and the IC50 [2, 3] was 100 to 1000 nM.
`COCC1CC(Oc2nc(C)cc(N3CC4(CC4)c4cnc(NC(C)=O)cc43)n2)C1` (stereo not shown) [Example 376, N-(1′-(2-(3-(methoxymethyl)cyclobutoxy)-6-methylpyrimidin-4-yl)-1′,2′-dihydrospiro[cyclopropane-1,3′-pyrrolo[3,2-c]pyridin]-6′-yl)acetamide] was tested, and the IC50 ([1]; then stimulated 15 minutes) was ≥ 1000 nM and the IC50 [2, 3] was 100 to 1000 nM.
In the case of `CC(=O)Nc1cc2c(cn1)C1(CC1)CN2c1cc(C)nc(OC2CC(F)C2)n1` (stereo not shown) [Example 377, N-(1′-(2-(3-fluorocyclobutoxy)-6-methylpyrimidin-4-yl)-1′,2′-dihydrospiro[cyclopropane-1,3′-pyrrolo[3,2-c]pyridin]-6′-yl)acetamide], the IC50 ([1]; then stimulated 15 minutes) is reported as ≥ 1000 nM and the IC50 [2, 3] is reported as 10 to 100 nM.
In the case of `COC1(COc2nc(C)cc(N3CC4(CC4)c4cnc(NC(C)=O)cc43)n2)CCC1` [Example 378, N-(1′-(2-((1-methoxycyclobutyl)methoxy)-6-methylpyrimidin-4-yl)-1′,2′-dihydrospiro[cyclopropane-1,3′-pyrrolo[3,2-c]pyridin]-6′-yl)acetamide], the IC50 ([1]; then stimulated 15 minutes) is reported as ≥ 1000 nM and the IC50 [2, 3] is reported as 100 to 1000 nM.
For `CC(=O)Nc1cc2c(cn1)C1(CC1)CN2c1cc(C)nc(OC2CCCC2)n1` [Example 379, N-(1′-(2-(cyclopentyloxy)-6-methylpyrimidin-4-yl)-1′,2′-dihydrospiro[cyclopropane-1,3′-pyrrolo[3,2-c]pyridin]-6′-yl)acetamide trifluoroacetate], the IC50 ([1]; then stimulated 15 minutes) was ≥ 1000 nM and the IC50 [2, 3] was 10 to 100 nM.
In the case of `CC(=O)Nc1cc2c(cn1)C1(CC1)CN2c1cc(-c2ccncc2F)nc(C(C)(F)F)n1` [Example 381, N-(1′-(2-(1,1-difluoroethyl)-6-(3-fluoropyridin-4-yl)pyrimidin-4-yl)-1′,2′-dihydrospiro[cyclopropane-1,3′-pyrrolo[3,2-c]pyridin]-6′-yl)acetamide trifluoroacetate], the IC50 ([1]; then stimulated 15 minutes) is reported as ≤ 10 nM and the IC50 [2, 3] is reported as ≤ 10 nM.
In the case of `CC(=O)Nc1cc2c(cn1)C1(CC1)CN2c1cc(-c2cnn(C3CCC3)c2)nc(C(C)(F)F)n1` [Example 382, N-(1′-(6-(1-cyclobutyl-1H-pyrazol-4-yl)-2-(1,1-difluoroethyl)pyrimidin-4-yl)-1′,2′-dihydrospiro[cyclopropane-1,3′-pyrrolo[3,2-c]pyridin]-6′-yl)acetamide trifluoroacetate], the IC50 ([1]; then stimulated 15 minutes) is reported as ≤ 10 nM and the IC50 [2, 3] is reported as ≤ 10 nM.
